Data reported in patent publication US20080207708A1, “Oxazole and Thiazole Compounds and Their Use in the Treatment of Pge2 Mediated Disorders” (GLAXO GROUP LIMITED, priority 2005, published 2008).
Where a name gives a salt, the structure may show the parent alone.

Columns and labels:
EP1 receptors [1] = target: T1, EP1 receptors (Homo sapiens, UniProt P34995); test: Binding assay for the human prostanoid EP1 receptor (competition with [3H]-PGE2); design: expressed in transfected cells; host or cells: CHO-K1 cells, membrane fraction; conditions: [3H]-PGE2 competition; averages of a number of experiments; read-out: pIC50 value, binding assay for the human prostanoid EP1 receptor (converted)
T1 sequence (P34995 1-402): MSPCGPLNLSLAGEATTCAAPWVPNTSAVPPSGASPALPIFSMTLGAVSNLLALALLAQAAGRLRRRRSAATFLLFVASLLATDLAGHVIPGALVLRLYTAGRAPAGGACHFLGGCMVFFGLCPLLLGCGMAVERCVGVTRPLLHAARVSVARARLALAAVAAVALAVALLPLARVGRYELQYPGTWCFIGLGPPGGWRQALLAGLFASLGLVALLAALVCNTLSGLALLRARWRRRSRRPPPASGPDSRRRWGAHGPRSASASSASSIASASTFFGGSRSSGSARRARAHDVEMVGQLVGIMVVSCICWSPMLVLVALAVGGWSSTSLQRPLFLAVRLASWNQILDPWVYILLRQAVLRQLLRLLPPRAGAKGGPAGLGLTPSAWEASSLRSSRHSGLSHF
Outline: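 Membranes from CHO-K1 cells stably expressing human EP1 incubated with compounds and [3H]-PGE2 (3 nM final) for 30 min at 30° C in MES buffer with EDTA and MgCl2, pH 6. Bound radioactivity measured after filtration; IC50 from nonlinear fit of specific binding inhibition.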

EP1 receptors [2] = target: T1, EP1 receptors; test: human EP1 calcium mobilisation assay (CHO-K1 cells, FLIPR, PGE2); assay type: cell-based; design: expressed in transfected cells; host or cells: CHO-K1 cells, pCIN vector; conditions: free bases or sodium salts; averages of a number of experiments; read-out: functional pKi value, human EP1 calcium mobilisation assay (converted)
Outline: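 CHO-K1 cells stably transfected with human EP1 cDNA, loaded with Fluo-4 AM after 24 h culture at 37° C. Compounds added first, then PGE2; antagonism read as inhibition of PGE2-induced intracellular calcium rise on FLIPR. pIC50 taken as concentration giving half-maximal inhibition, from curve fitting.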

SMILES: CN1CCN(c2ccc3nc(-c4csc(Cc5cc(Cl)ccc5OCc5ccccc5)n4)[nH]c3c2)CC1 [Example 148, 2-[2-({5-Chloro-2-[(phenylmethyl)oxy]phenyl}methyl)-1,3-thiazol-4-yl]-5-(4-methyl-1-piperazinyl)-1H-benzimidazole hydrochloride]
- IC50 (EP1 receptors [1]): ≤ 31.6 nM
- Ki (EP1 receptors [2]): < 1000 nM

SMILES: Clc1ccc(OCc2ccccc2)c(Cc2nc(-c3nc4ccc(N5CCOCC5)cc4[nH]3)cs2)c1 [Example 149, 2-[2-({5-Chloro-2-[(phenylmethyl)oxy]phenyl}methyl)-1,3-thiazol-4-yl]-5-(4-morpholinyl)-1H-benzimidazole hydrochloride]
- IC50 (EP1 receptors [1]): ≤ 31.6 nM
- Ki (EP1 receptors [2]): < 1000 nM

SMILES: Clc1ccc(OCc2ccccc2)c(Cc2nc(-c3nc4cc5cn[nH]c5cc4[nH]3)cs2)c1 [Example 150, 6-[2-({5-Chloro-2-[(phenylmethyl)oxy]phenyl}methyl)-1,3-thiazol-4-yl]-1,5-dihydroimidazo[4,5-f]indazolehydrochloride]
- IC50 (EP1 receptors [1]): ≤ 31.6 nM
- Ki (EP1 receptors [2]): < 1000 nM

SMILES: CN1CCN(c2ccc3[nH]c(-c4csc(Cc5cc(Cl)ccc5OCc5ccccc5)n4)nc3n2)CC1 [Example 151, 2-[2-({5-Chloro-2-[(phenylmethyl)oxy]phenyl}methyl)-1,3-thiazol-4-yl]-5-(4-methyl-1-piperazinyl)-1H-imidazo[4,5-b]pyridine hydrochloride]
- IC50 (EP1 receptors [1]): ≤ 31.6 nM
- Ki (EP1 receptors [2]): < 1000 nM

SMILES: CN(C)c1ccc2nc(-c3csc(Cc4cc(Cl)ccc4OCc4ccccc4)n3)[nH]c2n1 [Example 152, 2-[2-({-5-Chloro-2-[(phenylmethyl)oxy]phenyl}methyl)-1,3-thiazol-4-yl]-N,N-dimethyl-1H-imidazo[4,5-b]pyridin-5-amine hydrochloride]
- IC50 (EP1 receptors [1]): ≤ 31.6 nM
- Ki (EP1 receptors [2]): < 1000 nM

SMILES: OCCc1ccc2nc(-c3csc(Cc4cc(Cl)ccc4OCc4ccccc4)n3)[nH]c2c1 [Example 153, 2-{2-[2-({5-Chloro-2-[(phenylmethyl)oxy]phenyl}methyl)-1,3-thiazol-4-yl]-1H-benzimidazol-5-yl}ethanol]
- IC50 (EP1 receptors [1]): ≤ 31.6 nM
- Ki (EP1 receptors [2]): < 1000 nM

SMILES: CC(C)COc1ccc(Cl)cc1Cc1nc(-c2nc3ccc(CCO)cc3[nH]2)cs1 [Example 154, 2-{2-[2-({5-Chloro-2-[(2-methylpropyl)oxy]phenyl}methyl)-1,3-thiazol-4-yl]-1H-benzimidazol-5-yl}ethanol]
- IC50 (EP1 receptors [1]): ≤ 31.6 nM
- Ki (EP1 receptors [2]): ≤ 31.6 nM

SMILES: CC(C)COc1ccc(Cl)cc1Cc1nc(-c2nc3cc(F)c(F)cc3[nH]2)cs1 [Example 155, 2-[2-({5-Chloro-2-[(2-methylpropyl)oxy]phenyl}methyl)-1,3-thiazol-4-yl]-5,6-difluoro-1H-benzimidazole]
- IC50 (EP1 receptors [1]): ≤ 1000 nM
- Ki (EP1 receptors [2]): < 1000 nM

SMILES: Cc1nnc(-c2csc(Cc3cc(Cl)ccc3OCC(C)C)n2)[nH]1 [Example 158, 3-[2-({5-Chloro-2-[(2-methyl-propyl)oxy]-phenyl}methyl)-1,3-thiazol-4-yl]-5-methyl-1H-1,2,4-triazole]
- IC50 (EP1 receptors [1]): ≤ 1000 nM
- Ki (EP1 receptors [2]): < 1000 nM

SMILES: Cc1nnc(-c2csc(Cc3cc(Cl)ccc3OCc3ccccc3)n2)[nH]1 [Example 159, 3-[2-({5-Chloro-2-[(phenylmethyl)oxy]phenyl}methyl)-1,3-thiazol-4-yl]-5-methyl-1H-1,2,4-triazole]
- IC50 (EP1 receptors [1]): ≤ 1000 nM
- Ki (EP1 receptors [2]): < 1000 nM

SMILES: Clc1ccc(OCc2ccccc2)c(Cc2nc(-c3cn4ccccc4n3)cs2)c1 [Example 160, 2-[2-({5-Chloro-2-[(phenylmethyl)oxy]phenyl}methyl)-1,3-thiazol-4-yl]imidazo[1,2-a]pyridine]
- IC50 (EP1 receptors [1]): ≤ 1000 nM
- Ki (EP1 receptors [2]): < 1000 nM

SMILES: CC(C)COc1ccc(Cl)cc1Nc1nc(-c2nc3ccccc3[nH]2)cs1 [Example 164, 4-(1H-Benzimidazol-2-yl)-N-{5-chloro-2-[(2-methylpropyl)oxy]phenyl}-1,3-thiazol-2-aminehydrochloride]
- IC50 (EP1 receptors [1]): ≤ 31.6 nM
- Ki (EP1 receptors [2]): < 1000 nM

SMILES: CC(C)COc1ccc(Cl)cc1Nc1nc(-c2nc3ccc(N4CCN(C)CC4)cc3[nH]2)cs1 [Example 165, N-{5-Chloro-2-[(2-methylpropyl)oxy]phenyl}-4-[5-(4-methyl-1-piperazinyl)-1H-benzimidazol-2-yl]-1,3-thiazol-2-aminetrihydrochloride]
- IC50 (EP1 receptors [1]): ≤ 31.6 nM
- Ki (EP1 receptors [2]): > 1000 nM

SMILES: CC(C)COc1ccc(Cl)cc1Cc1nc(-c2nc3ccc(CCN(C)C)cc3[nH]2)co1 [Example 166, (2-{2-[2-({5-Chloro-2-[(2-methylpropyl)oxy]phenyl}methyl)-1,3-oxazol-4-yl]-1H-benzimidazol-5-yl}ethyl)dimethylamine hydrochloride]
- IC50 (EP1 receptors [1]): ≤ 31.6 nM
- Ki (EP1 receptors [2]): < 1000 nM

SMILES: CC(C)COc1ccc(Cl)cc1Cc1nc(-c2nc3ccc(CCN4CCN(C)CC4)cc3[nH]2)co1 [Example 167, 2-[2-({5-chloro-2-[(2-methylpropyl)oxy]phenyl}methyl)-1,3-oxazol-4-yl]-5-[2-(4-methyl-1-piperazinyl)ethyl]-1H-benzimidazolehydrochloride]
- IC50 (EP1 receptors [1]): ≤ 31.6 nM
- Ki (EP1 receptors [2]): < 1000 nM

SMILES: CC(C)COc1ccc(Cl)cc1Cc1nc(-c2nc3ccc(CCN4CCCCC4)cc3[nH]2)co1 [Example 168, 2-[2-({5-chloro-2-[(2-methylpropyl)oxy]phenyl}methyl)-1,3-oxazol-4-yl]-5-[2-(1-piperidinyl)ethyl]-1H-benzimidazolehydrochloride]
- IC50 (EP1 receptors [1]): ≤ 31.6 nM
- Ki (EP1 receptors [2]): < 1000 nM

SMILES: CC(C)COc1ccc(Cl)cc1Cc1nc(-c2nc3ccc(CCN4CCCC4)cc3[nH]2)co1 [Example 169, 2-[2-({5-chloro-2-[(2-methylpropyl)oxy]phenyl}methyl)-1,3-oxazol-4-yl]-5-[2-(1-pyrrolidinyl)ethyl]-1H-benzimidazolehydrochloride]
- IC50 (EP1 receptors [1]): ≤ 31.6 nM
- Ki (EP1 receptors [2]): < 1000 nM

SMILES: CN(C)Cc1ccc2nc(-c3coc(Cc4cc(Cl)ccc4OCc4ccccc4)n3)[nH]c2c1 [Example 170, ({2-[2-({5-chloro-2-[(phenylmethyl)oxy]phenyl}-methyl)-1,3-oxazol-4-yl]-1H-benzimidazol-5-yl}methyl)dimethylaminehydrochloride]
- IC50 (EP1 receptors [1]): ≤ 1000 nM
- Ki (EP1 receptors [2]): < 1000 nM

SMILES: CN1CCN(Cc2ccc3nc(-c4coc(Cc5cc(Cl)ccc5OCc5ccccc5)n4)[nH]c3c2)CC1 [Example 171, 2-[2-({5-chloro-2-[(phenylmethyl)oxy]phenyl}-methyl)-1,3-oxazol-4-yl]-5-[(4-methyl-1-piperazinyl)methyl]-1H-benzimidazolehydrochloride]
- IC50 (EP1 receptors [1]): ≤ 1000 nM
- Ki (EP1 receptors [2]): < 1000 nM

SMILES: Clc1ccc(OCc2ccccc2)c(Cc2nc(-c3nc4ccc(CN5CCCCC5)cc4[nH]3)co2)c1 [Example 172, 2-[2-({5-chloro-2-[(phenylmethyl)oxy]phenyl}-methyl)-1,3-oxazol-4-yl]-5-(1-piperidinylmethyl)-1H-benzimidazolehydrochloride]
- IC50 (EP1 receptors [1]): ≤ 1000 nM
- Ki (EP1 receptors [2]): < 1000 nM

SMILES: Clc1ccc(OCc2ccccc2)c(Cc2nc(-c3nc4ccc(CN5CCCC5)cc4[nH]3)co2)c1 [Example 173, 2-[2-({5-chloro-2-[(phenylmethyl)oxy]phenyl}-methyl)-1,3-oxazol-4-yl]-5-(1-pyrrolidinylmethyl)-1H-benzimidazolehydrochloride]
- IC50 (EP1 receptors [1]): ≤ 1000 nM
- Ki (EP1 receptors [2]): < 1000 nM

SMILES: CNCc1ccc2nc(-c3coc(Cc4cc(Cl)ccc4OCC(C)C)n3)[nH]c2c1 [Example 174, ({2-[2-({5-Chloro-2-[(2-methylpropyl)oxy]phenyl}methyl)-1,3-oxazol-4-yl]-1H-benzimidazol-5-yl}methyl)methylaminedihydrochloride]
- IC50 (EP1 receptors [1]): ≤ 31.6 nM
- Ki (EP1 receptors [2]): < 1000 nM

SMILES: CC(C)COc1ccc(Cl)cc1Cc1nc(-c2nc3ccc(CN(C)C)cc3[nH]2)co1 [Example 175, ({2-[2-({5-Chloro-2-[(2-methylpropyl)oxy]phenyl}methyl)-1,3-oxazol-4-yl]-1H-benzimidazol-5-yl}methyl)dimethylaminedihydrochloride]
- IC50 (EP1 receptors [1]): ≤ 31.6 nM
- Ki (EP1 receptors [2]): < 1000 nM

SMILES: CC(C)COc1ccc(Cl)cc1Cc1nc(-c2nc3ccc(CN4CCCC4)cc3[nH]2)co1 [Example 176, 2-[2-({5-chloro-2-[(2-methylpropyl)oxy]phenyl}methyl)-1,3-oxazol-4-yl]-5-(1-pyrrolidinylmethyl)-1H-benzimidazoledihydrochloride]
- IC50 (EP1 receptors [1]): ≤ 31.6 nM
- Ki (EP1 receptors [2]): < 1000 nM

SMILES: CC(C)COc1ccc(Cl)cc1Cc1nc(-c2nc3ccc(CN4CCCCC4)cc3[nH]2)co1 [Example 177, 2-[2-({5-chloro-2-[(2-methylpropyl)oxy]phenyl}methyl)-1,3-oxazol-4-yl]-5-(1-piperidinylmethyl)-1H-benzimidazoledihydrochloride]
- IC50 (EP1 receptors [1]): ≤ 31.6 nM
- Ki (EP1 receptors [2]): < 1000 nM

SMILES: CC(C)COc1ccc(Cl)cc1Cc1nc(-c2nc3ccc(CN4CCN(C)CC4)cc3[nH]2)co1 [Example 178, 2-[2-({5-Chloro-2-[(2-methylpropyl)oxy]phenyl}methyl)-1,3-oxazol-4-yl]-5-[(4-methyl-1-piperazinyl)methyl]-1H-benzimidazoletrihydrochloride]
- IC50 (EP1 receptors [1]): ≤ 31.6 nM
- Ki (EP1 receptors [2]): < 1000 nM
